Assays:
VEGF protein [1] = assay: Vitreal VEGF protein level in STZ-induced diabetic Long Evans rats; format: in vivo; settings: STZ diabetic LE rats, mini-osmotic pump, STZ/Veh 228, Veh/Veh 164
Description: Long Evans (LE) rats were treated with vehicle or streptozotocin (1×, 65 mg/kg). After 7 days, vehicle treated rats were treated further with a second vehicle and STZ treated diabetic rats were treated either with a second vehicle, Brimonidine (1 mg/kg/d) as a positive control, Panagonist A (300 ug/kg/d) or panagonist B (300 ug or 3 mg/kg/d) for another 3 wks using mini-osmotic pumps. Note that the synthesis of these two panagonists is known in the art. The panagonists have the following structure [drawing 1]
At end of the study, animals were sacrificed & vitreal VEGF protein level was measured as described earlier.
Long Evans rats were treated with vehicle or streptozotocin (1×, 65 mg/kg). After 7 days, vehicle treated rats were treated further with a second vehicle and STZ treated diabetic rats were treated either with a second vehicle, Brimonidine (1 mg/kg/d) as a positive control, or the Alpha 2B selective agonist, [drawing 2] (“2B Agonist”) (300 ug or 3 mg/kg/d) for another 3 wks using mini-osmotic pumps At end of the study, animals were sacrificed & vitreal VEGF protein level was measured as described earlier.

VEGF protein [2] = assay: VEGF protein levels in vitreous fluid of STZ-treated BN rats; format: in vivo, Brown Norway (BN) rats; settings: 5 wks, Mem 10 mg/kg/day or Bri 1 mg/kg/day for 4 wks after 1 wk of STZ, STZ/Veh 259, Veh/Veh 157
Description: (§1) Male Brown Norway (BN) rats were randomized into 4 different groups based on basal glucose and body weight. Using one time IP injection, one group of animals was treated with vehicle and other 3 groups were treated with 65 mg/kg streptozotocin (STZ). Within two days after STZ-treatment, blood glucose of the animals reached to 400 mg/dl from 100 mg/dl. After one wk of vehicle or STZ treatment, vehicle treated animals were further treated with a second vehicle for another 4 wks (Veh/Veh-35 D) and STZ treated animals were treated with either a second vehicle (STZ-35D/Veh-28D), Memantine, Mem (10 mg/kg/day) (STZ-35D/Mem-28D) or Brimonidine, Bri (1 mg/kg/day) for 4 wks (STZ-35D/Bri-28D) using mini osmotic pumps.

[3] = tested on: blood-retinal barrier (BRB); assay: Retinal BRB breakdown in STZ-treated BN rats; format: in vivo, Brown Norway (BN) rats; settings: 5 wks, Mem 10 mg/kg/day or Bri 1 mg/kg/day for 4 wks after 1 wk of STZ, STZ/Veh 22.9, Veh/Veh 9.1
Description: as §1

VEGF protein [4] = assay: VEGF protein levels in retina of STZ-treated BN rats; format: in vivo, Brown Norway (BN) rats; settings: 5 wks, Mem 10 mg/kg/day or Bri 1 mg/kg/day for 4 wks after 1 wk of STZ, STZ/Veh 719, Veh/Veh 482
Description: as §1

VEGF protein [5] = assay: VEGF protein levels in vitreous fluid of non-diabetic BN rats; format: in vivo, Brown Norway (BN) rats; settings: Mem 10 mg/kg/day or Bri 1 mg/kg/day for 28 days
[6] = 300 ug/kg/d for 3 wks (1 wk after STZ)
[7] = 3 mg/kg/d for 3 wks (1 wk after STZ)

S=c1[nH]cc(CC2CC=CC2)[nH]1 [2B Agonist]
VEGF protein levels in vitreous fluid (VEGF protein [1]; [6]): 148 pg/mL | VEGF protein levels in vitreous fluid (VEGF protein [1]; [7]): 130 pg/mL

Brc1c(NC2=NCCN2)ccc2nccnc12 [Brimonidine, brimonidine]
VEGF protein levels in vitreous fluid (VEGF protein [2]): 140 pg/mL | BRB breakdown in retina [3]: 12.2 ul plasma/g retina dry weight/hr | VEGF protein levels in retina (VEGF protein [4]): 455 pg/mg protein | VEGF protein levels in vitreous fluid (VEGF protein [1]; 1 mg/kg/d for 3 wks (1 wk after STZ)): 133 pg/mL | difference in vitreous fluid VEGF protein levels vs vehicle (VEGF protein [5]): no difference

CC12CC3CC(C)(C1)CC(N)(C3)C2 [Memantine, memantine]
VEGF protein levels in vitreous fluid (VEGF protein [2]): 160 pg/mL | BRB breakdown in retina [3]: 11.9 ul plasma/g retina dry weight/hr | VEGF protein levels in retina (VEGF protein [4]): 475 pg/mg protein | difference in vitreous fluid VEGF protein levels vs vehicle (VEGF protein [5]): no difference

c1cnc2c(c1)CC[C@@H](Cc1c[nH]cn1)C2 [panagonist A]
VEGF protein levels in vitreous fluid (VEGF protein [1]; [6]): 133 pg/mL

Cc1cccc([C@@H](C)c2c[nH]c(=S)[nH]2)c1C [panagonist B]
VEGF protein levels in vitreous fluid (VEGF protein [1]; [6]): 122 pg/mL | VEGF protein levels in vitreous fluid (VEGF protein [1]; [7]): 109 pg/mL

Reference: patent US20070203144A1, “Use of Memantine and Brimonidine to Attenuate Vitreoretinal Vascular Endothelial Growth Factor (VEGF) Protein Levels in Animals” (Allergan, Inc., priority 2006, published 2007)
